Test results reported in the supplement of paper PMC11061612.

How the values were obtained:
Assay in all cases: Bliss excess, mean over the matrix (fraction); higher = more synergy
MEL-JUSO (Melanoma) = tested on: MEL-JUSO (Melanoma)
How it was run: (§1)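 Cell lines in DMEM/F12 or RPMI with 10% FBS were plated in 1536-well plates, held 24 hours at 37°C, 5% CO2, then given two-drug dose matrices for 72 hours (DMSO typically 0.2%). Viability was read by CellTiter-Glo 2.0 luminescence and scaled as inhibition from 0 (vehicle wells) to 1 (blank wells). Combination Emax is the second-highest inhibition in the matrix; Bliss excess is observed combination effect minus expected EA + EB − EA·EB, EA and EB being single-agent effects.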

[1] = tested on: TOV-112D (Ovarian Carcinoma)
How it was run: as §1

[2] = tested on: SW1417 (Colorectal Carcinoma)
How it was run: as §1

[3] = tested on: COLO-678 (Colorectal Carcinoma)
How it was run: as §1

WIL2-NS (Non-Cancerous) = tested on: WIL2-NS (Non-Cancerous)
How it was run: as §1

CHP-212 (Neuroblastoma) = tested on: CHP-212 (Neuroblastoma)
How it was run: as §1

NCI-H2818 (Mesothelioma) = tested on: NCI-H2818 (Mesothelioma)
How it was run: as §1

U251 (Low Grade Glioma) = tested on: U251 (Low Grade Glioma)
How it was run: as §1

ES1 (Ewing's Sarcoma) = tested on: ES1 (Ewing's Sarcoma)
How it was run: as §1

[4] = tested on: KARPAS-45 (T-Lymphoblastic Leukemia)
How it was run: as §1

[5] = tested on: SW837 (Colorectal Carcinoma)
How it was run: as §1

[6] = tested on: L-540 (Hodgkin's Lymphoma)
How it was run: as §1

[7] = tested on: HDQ-P1 (Breast Carcinoma)
How it was run: as §1

[8] = tested on: DND-41 (T-Lymphoblastic Leukemia)
How it was run: as §1

[9] = tested on: CAMA-1 (Breast Carcinoma)
How it was run: as §1

[10] = tested on: MS751 (Cervical Carcinoma)
How it was run: as §1

[11] = tested on: SU-DHL-8 (B-Cell Non-Hodgkin's Lymphoma)
How it was run: as §1

[12] = tested on: BL-41 (Burkitt's Lymphoma)
How it was run: as §1

[13] = tested on: BFTC-905 (Bladder Carcinoma)
How it was run: as §1

[14] = tested on: KM12 (Colorectal Carcinoma)
How it was run: as §1

Structure (SMILES) | Bliss excess (MEL-JUSO (Melanoma)) | Bliss excess [1] | Bliss excess [2] | Bliss excess [3] | Bliss excess (WIL2-NS (Non-Cancerous)) | Bliss excess (CHP-212 (Neuroblastoma)) | Bliss excess (NCI-H2818 (Mesothelioma)) | Bliss excess (U251 (Low Grade Glioma)) | Bliss excess (ES1 (Ewing's Sarcoma)) | Bliss excess [4] | Bliss excess [5] | Bliss excess [6] | Bliss excess [7] | Bliss excess [8] | Bliss excess [9] | Bliss excess [10] | Bliss excess [11] | Bliss excess [12] | Bliss excess [13] | Bliss excess [14]
CCN(CCO)CCCOc1ccc2c(Nc3cc(CC(=O)Nc4cccc(F)c4)[nH]n3)ncnc2c1 [AZD2811] + O=C(c1cc(Cc2n[nH]c(=O)c3ccccc23)ccc1F)N1CCN(C(=O)C2CC2)CC1 [Olaparib] (first compound max 1 µM, 7x7, partner max 10 µM) | -0.0015 | 0.0355 | -0.0456 | -0.0223 | -0.033 | -0.0249 | -0.0415 | 0.0281 | 0.0749 | -0.115 | 0.0027 | 0.0113 | 0.0076 | -0.0059 | -0.0308 | -0.0068 | 0.102 | -0.121 | -0.0029 | 0.0068
CN(CCO)CC[C@H](CSc1ccccc1)Nc1ccc(S(=O)(=O)NC(=O)c2ccc(N3CCC([C@@H](O)c4ccccc4-c4ccc(Cl)cc4)CC3)cc2)cc1S(=O)(=O)C(F)(F)F [AZD4320] + C1CN(CCC1(C(=O)N[C@@H](CCO)C2=CC=C(C=C2)Cl)N)C3=NC=NC4=C3C=CN4 [Capivasertib] (first compound max 1 µM, 7x7, partner max 3 µM) | -0.0472 | -0.0183 | -0.0671 | -0.0741 | 0.0219 | -0.0667 | -0.126 | -0.0689 | 0.0027 | 0.0265 | -0.0453 | -0.0075 | 0.0119 | -0.0205 | -0.0365 | -0.009 | -0.0454 | -0.0146 | -0.0552 | -0.0572
CN(CCO)CC[C@H](CSc1ccccc1)Nc1ccc(S(=O)(=O)NC(=O)c2ccc(N3CCC([C@@H](O)c4ccccc4-c4ccc(Cl)cc4)CC3)cc2)cc1S(=O)(=O)C(F)(F)F [AZD4320] + C=CCn1c(=O)c2cnc(Nc3ccc(N4CCN(C)CC4)cc3)nc2n1-c1cccc(C(C)(C)O)n1 [AZD1775] (first compound max 1 µM, partner max 1 µM) | 0.042 | -0.0106 | -0.106 | -0.0459 | 0.0252 | -0.0137 | -0.0586 | -0.0676 | 0.0958 | -0.0041 | -0.0063 | 0.0594 | 0.0886 | 0.049 | -0.0421 | -0.0494 | 0.0017 | 0.0361 | -0.029 | -0.0316
CN(CCO)CC[C@H](CSc1ccccc1)Nc1ccc(S(=O)(=O)NC(=O)c2ccc(N3CCC([C@@H](O)c4ccccc4-c4ccc(Cl)cc4)CC3)cc2)cc1S(=O)(=O)C(F)(F)F [AZD4320] + CCN(CCO)CCCOc1ccc2c(Nc3cc(CC(=O)Nc4cccc(F)c4)[nH]n3)ncnc2c1 [AZD2811] (first compound max 1 µM, 7x7, partner max 1 µM) | 0.0289 | 0.0419 | -0.0306 | -0.0247 | 0.0006 | 0.0016 | -0.0555 | 0.0287 | 0.142 | -0.0137 | 0.0082 | 0.0985 | 0.0258 | 0.0382 | 0.0961 | 0.0064 | -0.013 | -0.0172 | 0.121 | 0.0173
CN(CCO)CC[C@H](CSc1ccccc1)Nc1ccc(S(=O)(=O)NC(=O)c2ccc(N3CCC([C@@H](O)c4ccccc4-c4ccc(Cl)cc4)CC3)cc2)cc1S(=O)(=O)C(F)(F)F [AZD4320] + CN(C)CCCOc1ccc(-c2ccc3ncc4c(c3c2)n(C2CCOCC2)c(=O)n4C)cn1 [AZD0156] (first compound max 1 µM, 7x7, partner max 1 µM) | 0.0034 | -0.0078 | -0.0567 | -0.081 | 0.0109 | -0.056 | -0.0501 | -0.0374 | -0.0129 | -0.0326 | -0.0322 | 0.0178 | -0.03 | -0.0036 | -0.0591 | -0.0248 | -0.044 | 0.0153 | -0.017 | -0.0489
CN(CCO)CC[C@H](CSc1ccccc1)Nc1ccc(S(=O)(=O)NC(=O)c2ccc(N3CCC([C@@H](O)c4ccccc4-c4ccc(Cl)cc4)CC3)cc2)cc1S(=O)(=O)C(F)(F)F [AZD4320] + C[C@@H]1COCCN1C2=NC(=NC(=C2)C3(CC3)[S@](=N)(=O)C)C4=C5C=CNC5=NC=C4 [AZD6738] (first compound max 1 µM, 7x7, partner max 10 µM) | -0.0159 | 0.0134 | -0.0757 | -0.0616 | -0.0004 | -0.0496 | -0.157 | -0.0272 | 0.0567 | -0.0069 | -0.0618 | 0.0082 | 0.0268 | -0.0028 | -0.0016 | 0.0029 | 0.019 | -0.0221 | -0.0286 | -0.0272
CN(CCO)CC[C@H](CSc1ccccc1)Nc1ccc(S(=O)(=O)NC(=O)c2ccc(N3CCC([C@@H](O)c4ccccc4-c4ccc(Cl)cc4)CC3)cc2)cc1S(=O)(=O)C(F)(F)F [AZD4320] + C[C@@H](Nc1cc(F)cc(F)c1)c1cc(C(=O)N(C)C)cc2c(=O)cc(N3CCOCC3)oc12 [AZD8186] (first compound max 1 µM, 7x7, partner max 3 µM) | 0.033 | -0.0108 | 0.0346 | 0.0221 | -0.0709 | -0.072 | -0.0232 | -0.0013 | 0.0591 | 0.0842 | -0.0491 | 0.068 | -0.0018 | 0.0338 | 0.0218 | 0.0982 | -0.0714 | 0.0388 | -0.0221 | 0.0562
CN(CCO)CC[C@H](CSc1ccccc1)Nc1ccc(S(=O)(=O)NC(=O)c2ccc(N3CCC([C@@H](O)c4ccccc4-c4ccc(Cl)cc4)CC3)cc2)cc1S(=O)(=O)C(F)(F)F [AZD4320] + Cc1cc2ncnn2cc1Nc1ncc2c(n1)n(C1CCOCC1)c(=O)n2C [AZD7648] (first compound max 1 µM, 7x7, partner max 10 µM) | -0.0065 | -0.019 | -0.0426 | -0.0684 | -0.029 | -0.0441 | -0.0715 | -0.0405 | -0.0222 | 0.042 | -0.0273 | 0.0389 | -0.0085 | -0.0011 | -0.0031 | -0.0353 | -0.0255 | 0.0115 | -0.0375 | -0.0234
CN(CCO)CC[C@H](CSc1ccccc1)Nc1ccc(S(=O)(=O)NC(=O)c2ccc(N3CCC([C@@H](O)c4ccccc4-c4ccc(Cl)cc4)CC3)cc2)cc1S(=O)(=O)C(F)(F)F [AZD4320] + Cn1cnc2c(F)c(Nc3ccc(Br)cc3Cl)c(C(=O)NOCCO)cc21 [Selumetinib] (first compound max 1 µM, 7x7, partner max 3 µM) | -0.0081 | 0.0107 | 0.056 | 0.0536 | 0.0074 | -0.0108 | -0.0136 | -0.0087 | 0.0147 | -0.0248 | -0.0184 | -0.0184 | 0.0877 | -0.0181 | 0.0043 | 0.0636 | -0.102 | 0.039 | -0.0411 | 0.0423
COc1nnc2ccc(N3CCC(c4ccc(OCCN5CCN(C)C(=O)[C@H]5C)cc4)CC3)nn12 [AZD5153] + C=CCn1c(=O)c2cnc(Nc3ccc(N4CCN(C)CC4)cc3)nc2n1-c1cccc(C(C)(C)O)n1 [AZD1775] (first compound max 1 µM, partner max 1 µM) | 0.0131 | -0.0434 | -0.0254 | -0.0287 | -0.105 | -0.0294 | 0.0033 | 0.0398 | -0.0845 | -0.0088 | -0.0653 | -0.0433 | -0.041 | -0.0027 | -0.0121 | 0.064 | 0.0014 | -0.0454 | -0.0559 | -0.0456
COc1nnc2ccc(N3CCC(c4ccc(OCCN5CCN(C)C(=O)[C@H]5C)cc4)CC3)nn12 [AZD5153] + CC1(C)CCC(CN2CCN(c3ccc(C(=O)NS(=O)(=O)c4ccc(NCC5CCOCC5)c([N+](=O)[O-])c4)c(Oc4cnc5[nH]ccc5c4)c3)CC2)=C(c2ccc(Cl)cc2)C1 [Venetoclax] (first compound max 1 µM, 7x7, partner max 1 µM) | -0.0547 | -0.0474 | -0.0485 | -0.121 | -0.0495 | -0.085 | -0.0487 | -0.0872 | -0.0896 | 0.0433 | -0.0514 | -0.0012 | -0.0307 | 0.0352 | -0.0564 | -0.0752 | -0.0486 | -0.0551 | -0.0577 | -0.0571
COc1nnc2ccc(N3CCC(c4ccc(OCCN5CCN(C)C(=O)[C@H]5C)cc4)CC3)nn12 [AZD5153] + CCN(CCO)CCCOc1ccc2c(Nc3cc(CC(=O)Nc4cccc(F)c4)[nH]n3)ncnc2c1 [AZD2811] (first compound max 1 µM, 7x7, partner max 1 µM) | -0.0003 | -0.0297 | -0.0301 | -0.0409 | -0.0421 | -0.027 | -0.0083 | 0.0064 | -0.0504 | -0.0171 | -0.0663 | -0.0477 | -0.008 | 0.0529 | -0.0311 | 0.0349 | 0.107 | -0.0369 | -0.0452 | -0.0112
COc1nnc2ccc(N3CCC(c4ccc(OCCN5CCN(C)C(=O)[C@H]5C)cc4)CC3)nn12 [AZD5153] + C[C@@H]1COCCN1C2=NC(=NC(=C2)C3(CC3)[S@](=N)(=O)C)C4=C5C=CNC5=NC=C4 [AZD6738] (first compound max 1 µM, 7x7, partner max 10 µM) | 0.0624 | 0.0306 | 0.0052 | 0.0502 | -0.0766 | -0.0197 | -0.0383 | 0.0544 | -0.015 | -0.0191 | -0.0066 | -0.0623 | 0.0527 | 0.0628 | -0.0091 | 0.0833 | 0.0042 | -0.0562 | -0.05 | 0.0526
